Counter-ions that a name gives are not always drawn.
Test system: zebrafish lateral line hair cells
Assay: Standard assay: manual hair cell counting from individual neuromasts (confocal)
Format: in vivo, Danio rerio
Details: same representative experiment as PEPITA curve; read-out: EC50 (Standard Assay, normalized HC counts from individual neuromasts)
Protocol: To prepare the fish for confocal microscopy, fish were fixed in 2% paraformaldehyde for 1 hour at room temperature as described previously ([Philip et al., 2018]), before being transferred to fluoromount and mounted between two glass coverslips. To avoid crushing the fish, a dot of nail polish was placed on each corner of the coverslip so that the top coverslip sat slightly above the bottom coverslip where the fish was mounted. Fluorescent confocal microscopy was performed using a Leica Stellaris 8 microscope. Cranial lateral line neuromasts of each fish were imaged under an HC PL APO CS2 40x/1.30 oil objective with a 405 nm laser and 541/47 emission filter. Images were taken as z-stacks in 0.66 µm steps. Stacks were transformed into average intensity projections and prepared for visual analysis in ImageJ.
For hair cell survival quantification from individual neuromasts, trained observers counted surviving hair cells in confocal images of neuromasts of larvae that had been treated with various doses of neomycin. Two to eight neuromasts were scored per condition, and counts for each neuromast were averaged between two scorers. These counts were divided by previously characterized mean hair cell counts ([Harris et al., 2003]), matched by anatomical position, to yield a position-scaled measure of HCs present in each neuromast. […]

`NC[C@@H]1O[C@H](O[C@H]2[C@@H](O)[C@H](O[C@@H]3[C@@H](O)[C@H](N)C[C@H](N)[C@H]3O[C@H]3O[C@H](CN)[C@@H](O)[C@H](O)[C@H]3N)O[C@@H]2CO)[C@H](N)[C@@H](O)[C@@H]1O` [Neomycin, Neomycin sulfate hydrate] gave an EC50 of 2000 nM.

From publication PMC10955247, “In vivo screening for toxicity-modulating drug interactions identifies antagonism that protects against ototoxicity in zebrafish” (Frontiers in Pharmacology, 2024)
